Measured values: patent publication US20230404998A1, “Combination Therapies for Treating Cancer” (ASCENTAGE PHARMA (SUZHOU) CO., LTD., priority 2020, published 2023)
Marks after values point to notes of the source that are not given here.

How the values were obtained:
Set-up in all cases: species or system mouse
Settings in all cases: ABL001 60 mg/kg, Ponatinib 20 mg/kg, HQP1351 20 mg/kg
[1] = tested on: T315I orthotopic tumor model; assay: In vivo efficacy, T315I orthotopic tumor model
Protocol: (§1) In vivo efficacy was evaluated using the syngeneic mouse model derived from BaF3 cells with T315I and/or compound mutations. Tumor models were established by intravenously injecting tumor cells (1×10^5/mouse) into the caudal vein under sterile conditions. Mice were randomized into control and treatment groups with 8-10 mice per group and start the treatment from the second day post inoculation. The animal body weights were measured twice a week. The antitumor activity curves of test articles were plotted with the treatment time (day) on the X-axis, and corresponding survival rate on the Y-axis. A Log-rank (Mental-cox) test was employed to analyze the statistical significance of any difference between the treatment group and the control group. Prism version 7 (GraphPad Software Inc., San Diego, CA) was used for all statistical analysis and for graphic presentation.

[2] = tested on: Y253H/T315I orthotopic tumor model; assay: In vivo efficacy, Y253H/T315I orthotopic tumor model
Protocol: as §1

[3] = tested on: F317L/T315I orthotopic tumor model; assay: In vivo efficacy, F317L/T315I orthotopic tumor model
Protocol: as §1

[4] = tested on: E255V/T315I orthotopic tumor model; assay: In vivo efficacy, E255V/T315I orthotopic tumor model
Protocol: as §1

Row | Compound | Median survival [1] | Survival prolongation (%) [1] | Survive/Total @ D43 [1] | Median survival [2] | Survival prolongation (%) [2] | Survive/Total @ 24 [2] | Median survival [3] | Survival prolongation (%) [3] | Survive/Total @ 24 [3] | Median survival [4] | Survival prolongation (%) [4] | Survive/Total @ D26 [4]
1 | Cc1ccc(C(=O)Nc2ccc(CN3CCN(C)CC3)c(C(F)(F)F)c2)cc1C#Cc1cnc2cccnn12 [Ponatinib] | 27.0**** | 28.57% | 0/10 | 20.0** | 17.65% | 0/8 | 27.0**** | 54.29% | 1/8 | 24.5**** | 16.67% | 0/10
2 | O=C(Nc1ccc(OC(F)(F)Cl)cc1)c1cnc(N2CC[C@@H](O)C2)c(-c2cc[nH]n2)c1 [ABL001, asciminib] | 24.5**** | 16.67% | 0/10 | 21.0*** | 23.53% | 0/8 | 18.0 | 2.86% | 0/8 | 27.0**** | 28.57% | 0/10
